Data as given in ChEMBL document CHEMBL1140714, “In search of novel agents for therapy of tropical diseases and human immunodeficiency virus” (J Med Chem, 2008).
Active and inactive are the calls of the source. The rule behind the calls is not given here.

Columns and labels:
Plasmodium falciparum [1] = assay: Antiplasmodial activity against chloroquine-sensitive Plasmodium falciparum; assay type: functional, organism-based
Staphylococcus aureus = assay: Antibacterial activity against Staphylococcus aureus assessed as inhibition of biofilm formation; assay type: functional, organism-based
[2] = Cytotoxicity against mouse J774.1 cells after 48 hrs; assay type: cell-based; settings: read-out: ED50
Leishmania major = assay: Antileishmanial activity against Leishmania major MHOM/IL/81/FE/BNI infected in BALB/c mouse; assay type: functional
[3] = system: Trypanosoma brucei brucei; assay: Antitrypanosomal activity against Trypanosoma brucei brucei TC221; assay type: functional; settings: read-out: ED50 (the source's name)
Plasmodium falciparum [4] = assay: Antiplasmodial activity against Plasmodium falciparum NF54 after 24 hrs; assay type: functional, organism-based; settings: NF54, 24 h
Plasmodium falciparum [5] = assay: Antiplasmodial activity against Plasmodium falciparum NF54 after 72 hrs; assay type: functional, organism-based; settings: NF54, 72 h
[6] = Plasmodium falciparum, read-out: IC50

C=CCN1[C@H](c2ccccc2)C(C(=O)OC)C(=O)C(C(=O)OC)[C@@H]1c1ccccc1 (stereo partly drawn)
IC50 (Plasmodium falciparum [1]): Not Active | Activity (Staphylococcus aureus): inactive | CC50 at 48 h [2]: > 100 µM

ON=C1CCN(CCCc2ccccc2)CC1
IC50 (Plasmodium falciparum [1]; [6]): 26 µM | Activity (Staphylococcus aureus): inactive

COC(=O)C1C(=O)C(C(=O)OC)[C@H](c2cccc([N+](=O)[O-])c2)N(Cc2ccccc2)[C@@H]1c1cccc([N+](=O)[O-])c1 (stereo partly drawn)
IC50 (Plasmodium falciparum [1]): Not Active | ED50 (Leishmania major): >100 µM | Activity (Staphylococcus aureus): inactive | CC50 at 48 h [2]: > 100 µM

COC(=O)C1C(=O)C(C(=O)OC)[C@H](c2cccc([N+](=O)[O-])c2)N(Cc2ccc(OC)cc2)[C@@H]1c1cccc([N+](=O)[O-])c1 (stereo partly drawn)
IC50 (Plasmodium falciparum [1]): Not Active | ED50 (Leishmania major): >100 µM | Activity (Staphylococcus aureus): inactive | CC50 at 48 h [2]: > 100 µM

CC[C@@H]1CC2(C[C@H](CC)N1)C(=O)N(CCc1ccccc1)C(=O)N2c1ccccc1 (stereo partly drawn)
IC50 (Plasmodium falciparum [1]): Not Active | ED50 (Leishmania major): 41.1 µM | Activity (Staphylococcus aureus): inactive | CC50 at 48 h [2]: 32.3 µM | EC50 [3]: 18.1 µM

O/N=C/C1CCN(CCCc2ccccc2)CC1
ED50 (Leishmania major): >100 µM | Activity (Staphylococcus aureus): inactive | CC50 at 48 h [2]: > 100 µM | EC50 [3]: > 100 µM

CC[C@@H]1CC2(C[C@H](CC)N1)C(=O)N(CCCc1ccccc1)C(=O)N2c1ccccc1 (stereo partly drawn)
IC50 (Plasmodium falciparum [1]): Not Active | ED50 (Leishmania major): >100 µM | Activity (Staphylococcus aureus): inactive | CC50 at 48 h [2]: > 100 µM | EC50 [3]: 13.4 µM

COC(=O)C1=C(O)C[C@H](c2ccccn2)N(Cc2ccc(OC)cc2)[C@@H]1c1ccccn1
ED50 (Leishmania major): 30 µM | Activity (Staphylococcus aureus): inactive | CC50 at 48 h [2]: 29.9 µM | EC50 [3]: 0.43 µM

COC(=O)C1C(=O)C(C(=O)OC)[C@H](c2ccccn2)N(CCO)[C@@H]1c1ccccn1 (stereo partly drawn)
IC50 (Plasmodium falciparum [1]): Not Active | ED50 (Leishmania major): >100 µM | Activity (Staphylococcus aureus): inactive | CC50 at 48 h [2]: 31.2 µM

COC(=O)C1C(=O)C(C(=O)OC)[C@H](c2ccccn2)N(CCCCCCCC(=O)O)[C@@H]1c1ccccn1 (stereo partly drawn)
Activity (Plasmodium falciparum [1]): inactive | ED50 (Leishmania major): 50.34 µM | CC50 at 48 h [2]: 33.8 µM

COC(=O)C1C(=O)C(C(=O)OC)[C@H](c2ccccn2)N(Cc2ccccn2)[C@@H]1c1ccccn1 (stereo partly drawn)
IC50 (Plasmodium falciparum [1]): Not Active | ED50 (Leishmania major): >100 µM | Activity (Staphylococcus aureus): inactive | CC50 at 48 h [2]: 29.9 µM | EC50 [3]: 4.62 µM

COC(=O)C1C(=O)C(C(=O)OC)[C@H](c2ccccn2)N(CCCO)[C@@H]1c1ccccn1 (stereo partly drawn)
IC50 (Plasmodium falciparum [1]): Not Active | ED50 (Leishmania major): >100 µM | Activity (Staphylococcus aureus): inactive | CC50 at 48 h [2]: 32 µM | EC50 [3]: 18.3 µM

COC(=O)C1=C(O)C[C@H](c2ccccn2)N(Cc2cccc(OC)c2)[C@@H]1c1ccccn1
ED50 (Leishmania major): >100 µM | Activity (Staphylococcus aureus): inactive | CC50 at 48 h [2]: > 100 µM | EC50 [3]: > 100 µM

COC(=O)C1C(=O)C(C(=O)OC)[C@H](c2cccc([N+](=O)[O-])c2)N(Cc2ccc(C)cc2)[C@@H]1c1cccc([N+](=O)[O-])c1 (stereo partly drawn)
IC50 (Plasmodium falciparum [1]): Not Active | ED50 (Leishmania major): >100 µM | Activity (Staphylococcus aureus): inactive | CC50 at 48 h [2]: 49.8 µM

CC[C@@H]1CC2(C[C@@H](CC)N1)C(=O)NC(=O)N2Cc1ccccc1 (stereo partly drawn)
IC50 (Plasmodium falciparum [1]): Not Active | ED50 (Leishmania major): >100 µM | Activity (Staphylococcus aureus): inactive | CC50 at 48 h [2]: > 100 µM | EC50 [3]: > 100 µM

CCCC[C@@H]1CC2(C[C@H](CCCC)N1)C(=O)NC(=O)N2c1ccccc1 (stereo partly drawn)
IC50 (Plasmodium falciparum [1]): Not Active | ED50 (Leishmania major): >100 µM | Activity (Staphylococcus aureus): inactive | EC50 [3]: 24.4 µM

CC[C@@H]1CC2(C[C@H](CC)N1)C(=O)N(Cc1ccccc1)C(=O)N2c1ccccc1 (stereo partly drawn)
IC50 (Plasmodium falciparum [1]): Not Active | Activity (Staphylococcus aureus): inactive | EC50 [3]: 20.3 µM

COC(=O)C1=C(c2ccccn2)N(Cc2ccc(Cl)cc2)C(c2ccccn2)CC1=O (stereo not drawn)
Activity (Staphylococcus aureus): inactive | IC50 (Plasmodium falciparum [4]): 18 µM

COC(=O)C1C(=O)C(C(=O)OC)[C@H](c2cccc([N+](=O)[O-])c2)N(Cc2ccc(Cl)cc2)[C@@H]1c1cccc([N+](=O)[O-])c1 (stereo partly drawn)
IC50 (Plasmodium falciparum [1]): Not Active | ED50 (Leishmania major): >100 µM | Activity (Staphylococcus aureus): inactive | CC50 at 48 h [2]: 46.6 µM

C=CCN1[C@H](c2ccc([N+](=O)[O-])cc2)C(C(=O)OC)C(=O)C(C(=O)OC)[C@@H]1c1ccc([N+](=O)[O-])cc1 (stereo partly drawn)
IC50 (Plasmodium falciparum [1]): Not Active | ED50 (Leishmania major): >100 µM | Activity (Staphylococcus aureus): inactive | CC50 at 48 h [2]: 50.3 µM | EC50 [3]: 2.41 µM

COC(=O)C1=C(O)C[C@@H](c2ccccn2)N(Cc2ccccc2)[C@H]1c1ccccn1
IC50 (Plasmodium falciparum [1]): Not Active | ED50 (Leishmania major): 25.97 µM | Activity (Staphylococcus aureus): inactive | CC50 at 48 h [2]: 33.2 µM

COC(=O)C1C(=O)C(C(=O)OC)[C@H](c2ccccn2)N(CCCC(=O)O)[C@@H]1c1ccccn1 (stereo partly drawn)
IC50 (Plasmodium falciparum [1]): Not Active | ED50 (Leishmania major): >100 µM | Activity (Staphylococcus aureus): inactive | CC50 at 48 h [2]: 46 µM | EC50 [3]: 19.3 µM

COC(=O)C1C(=O)[C@H](C(=O)OC)C(c2ccccn2)N[C@@H]1c1ccccn1 (stereo partly drawn)
IC50 (Plasmodium falciparum [1]): Not Active | ED50 (Leishmania major): >100 µM | Activity (Staphylococcus aureus): inactive | CC50 at 48 h [2]: > 100 µM

NCCCC(N)(C(=O)O)C(F)F (stereo not drawn) [EFLORNITHINE]
EC50 [3]: 22.9 µM

COC(=O)C1=C(c2ccccn2)N(Cc2ccccc2)C(c2ccccn2)CC1=O (stereo not drawn)
Activity (Staphylococcus aureus): inactive | IC50 (Plasmodium falciparum [4]): 4.7 µM | EC50 [3]: > 100 µM

COC(=O)C1=C(O)C[C@H](c2ccccn2)N(Cc2ccc(C)cc2)[C@@H]1c1ccccn1
ED50 (Leishmania major): 83.83 µM | Activity (Staphylococcus aureus): inactive | CC50 at 48 h [2]: 34.9 µM | EC50 [3]: 0.47 µM

CC[C@@H]1CC2(C[C@H](CC)N1Cc1ccccc1)C(=O)N(Cc1ccc([N+](=O)[O-])cc1)C(=O)N2c1ccccc1 (stereo partly drawn)
IC50 (Plasmodium falciparum [1]): Not Active | ED50 (Leishmania major): >100 µM | Activity (Staphylococcus aureus): inactive | CC50 at 48 h [2]: > 100 µM | EC50 [3]: 25.4 µM

C[C@@H]1CC2(C[C@H](C)N1)C(=O)N(CCO)C(=O)N2Cc1ccccc1 (stereo partly drawn)
IC50 (Plasmodium falciparum [1]): Not Active | ED50 (Leishmania major): >100 µM | Activity (Staphylococcus aureus): inactive | CC50 at 48 h [2]: > 100 µM | EC50 [3]: > 100 µM

CCC[C@@H]1CC2(C[C@H](CCC)N1)C(=O)NC(=O)N2c1ccccc1 (stereo partly drawn)
IC50 (Plasmodium falciparum [1]): Not Active | ED50 (Leishmania major): >100 µM | Activity (Staphylococcus aureus): inactive | CC50 at 48 h [2]: 36 µM | EC50 [3]: > 100 µM

COC(=O)C1C(=O)C(C(=O)OC)[C@H](c2ccccn2)N(CCOCCO)[C@@H]1c1ccccn1 (stereo partly drawn)
IC50 (Plasmodium falciparum [1]): Not Active | ED50 (Leishmania major): 65.04 µM | Activity (Staphylococcus aureus): inactive | CC50 at 48 h [2]: 38.5 µM

C[C@@H]1CC2(C[C@H](C)N1)C(=O)N(Cc1ccc([N+](=O)[O-])cc1)C(=O)N2Cc1ccccc1 (stereo partly drawn)
ED50 (Leishmania major): >100 µM | Activity (Staphylococcus aureus): inactive | IC50 (Plasmodium falciparum [5]): 14.6 µM | CC50 at 48 h [2]: 42.4 µM | EC50 [3]: 3.74 µM

Clc1cccc(Cl)c1CON=C1CCN(CCCc2ccccc2)CC1
IC50 (Plasmodium falciparum [1]; [6]): 31 µM | ED50 (Leishmania major): >100 µM | Activity (Staphylococcus aureus): inactive | CC50 at 48 h [2]: > 100 µM | EC50 [3]: > 100 µM

C=CCN1[C@@H](c2ccccn2)C(C(=O)OC)=C(O)C[C@H]1c1ccccn1
ED50 (Leishmania major): 50 µM | Activity (Staphylococcus aureus): inactive | CC50 at 48 h [2]: 35 µM | IC50 (Plasmodium falciparum [4]): 1.4 µM

C[C@@H]1CC2(C[C@H](C)N1)C(=O)NC(=O)N2c1ccccc1 (stereo partly drawn)
IC50 (Plasmodium falciparum [1]): Not Active | ED50 (Leishmania major): >100 µM | Activity (Staphylococcus aureus): inactive | CC50 at 48 h [2]: > 100 µM | EC50 [3]: > 100 µM

CC[C@@H]1CC2(C[C@H](CC)N1Cc1ccccc1)C(=O)NC(=O)N2c1ccccc1 (stereo partly drawn)
IC50 (Plasmodium falciparum [1]): Not Active | ED50 (Leishmania major): >100 µM | Activity (Staphylococcus aureus): inactive | CC50 at 48 h [2]: > 100 µM | EC50 [3]: 31 µM

C=CCN1[C@H](c2ccccn2)C(C(=O)OC)C(=O)C(C(=O)OC)[C@@H]1c1ccccn1 (stereo partly drawn)
IC50 (Plasmodium falciparum [1]): Not Active | ED50 (Leishmania major): >100 µM | Activity (Staphylococcus aureus): inactive | CC50 at 48 h [2]: > 100 µM

N=C(N)c1ccc(OCCCCCOc2ccc(C(=N)N)cc2)cc1 [PENTAMIDINE ISETHIONATE]
EC50 [3]: 0.0027 µM
